Assay results: patent US12037344B2, “NLRP3 modulators” (INNATE TUMOR IMMUNITY, INC., priority 2018, dated 2024)
Where two headings read alike, the source gives them in different places.

Assays:
THP-1 cells = assay: Measurement of IL-1β production, hTRF protocol (second alternative procedure), THP-1 cells; type: cell-based, human; settings: read-out: NLRP3 hILIB EC50
How it was run: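 Compounds, dilution series starting at a final 10 μM, were incubated 2 hours at 37° C with PMA-differentiated THP-1 cells (50 ng/ml overnight; 50,000 cells/well, 2% FBS RPMI). Released IL-1β quantified in supernatant by hTRF kit with 1:40 antibody dilution, 4° C overnight, 665/615 nm ratio.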

TLR7 = target: T1, TLR7 (Homo sapiens, UniProt Q9NYK1); assay: In vitro human TLR7 binding reporter assay (HEK-Blue, NF-kB/AP1-inducible SEAP); type: cell-based; settings: read-out: TLR7 Agonist EC50
T1 construct: human HEK-Blue cells co-expressing a TLR7 or TLR8 gene
T1 sequence (Q9NYK1 27-1049): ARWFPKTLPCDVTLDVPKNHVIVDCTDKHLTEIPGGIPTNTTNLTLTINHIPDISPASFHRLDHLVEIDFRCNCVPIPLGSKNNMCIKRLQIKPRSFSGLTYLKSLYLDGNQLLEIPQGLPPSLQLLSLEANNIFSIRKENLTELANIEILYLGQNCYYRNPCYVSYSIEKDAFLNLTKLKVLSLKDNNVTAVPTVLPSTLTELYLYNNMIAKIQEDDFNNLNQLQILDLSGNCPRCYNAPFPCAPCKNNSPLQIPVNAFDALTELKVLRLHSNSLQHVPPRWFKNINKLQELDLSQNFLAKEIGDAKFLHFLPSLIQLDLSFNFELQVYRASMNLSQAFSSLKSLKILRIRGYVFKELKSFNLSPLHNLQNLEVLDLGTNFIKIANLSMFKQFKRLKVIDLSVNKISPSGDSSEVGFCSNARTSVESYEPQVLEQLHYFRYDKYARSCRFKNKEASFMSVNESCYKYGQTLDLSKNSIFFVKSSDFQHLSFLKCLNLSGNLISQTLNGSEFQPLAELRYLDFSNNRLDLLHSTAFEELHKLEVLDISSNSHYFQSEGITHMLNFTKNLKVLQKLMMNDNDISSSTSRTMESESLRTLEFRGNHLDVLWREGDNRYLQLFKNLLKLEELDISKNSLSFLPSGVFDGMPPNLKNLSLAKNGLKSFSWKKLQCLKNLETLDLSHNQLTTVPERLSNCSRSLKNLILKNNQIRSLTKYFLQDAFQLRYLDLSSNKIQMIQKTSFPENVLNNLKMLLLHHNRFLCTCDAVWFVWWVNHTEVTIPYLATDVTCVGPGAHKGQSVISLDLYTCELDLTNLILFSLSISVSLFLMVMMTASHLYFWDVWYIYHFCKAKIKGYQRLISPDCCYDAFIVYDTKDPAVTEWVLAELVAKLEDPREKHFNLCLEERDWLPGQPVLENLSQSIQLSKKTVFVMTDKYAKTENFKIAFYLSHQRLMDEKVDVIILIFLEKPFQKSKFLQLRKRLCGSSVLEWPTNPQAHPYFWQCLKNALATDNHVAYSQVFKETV
How it was run: (§1)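 Cells are seeded and grown for 24 h. Compounds or DMSO are then added and incubated 18 h at 37 °C. Quanti-Blue is added, and SEAP is read after thirty minutes. EC50 values are normalized, with RLU from 50 μM reference standard setting 100% Ymax.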

TLR8 = target: T2, TLR8 (Homo sapiens, UniProt Q9NR97); assay: In vitro human TLR8 binding reporter assay (HEK-Blue, NF-kB/AP1-inducible SEAP); type: cell-based; settings: read-out: TLR8 Agonist EC50
T2 construct: human HEK-Blue cells co-expressing a TLR7 or TLR8 gene
T2 sequence (Q9NR97 27-1041): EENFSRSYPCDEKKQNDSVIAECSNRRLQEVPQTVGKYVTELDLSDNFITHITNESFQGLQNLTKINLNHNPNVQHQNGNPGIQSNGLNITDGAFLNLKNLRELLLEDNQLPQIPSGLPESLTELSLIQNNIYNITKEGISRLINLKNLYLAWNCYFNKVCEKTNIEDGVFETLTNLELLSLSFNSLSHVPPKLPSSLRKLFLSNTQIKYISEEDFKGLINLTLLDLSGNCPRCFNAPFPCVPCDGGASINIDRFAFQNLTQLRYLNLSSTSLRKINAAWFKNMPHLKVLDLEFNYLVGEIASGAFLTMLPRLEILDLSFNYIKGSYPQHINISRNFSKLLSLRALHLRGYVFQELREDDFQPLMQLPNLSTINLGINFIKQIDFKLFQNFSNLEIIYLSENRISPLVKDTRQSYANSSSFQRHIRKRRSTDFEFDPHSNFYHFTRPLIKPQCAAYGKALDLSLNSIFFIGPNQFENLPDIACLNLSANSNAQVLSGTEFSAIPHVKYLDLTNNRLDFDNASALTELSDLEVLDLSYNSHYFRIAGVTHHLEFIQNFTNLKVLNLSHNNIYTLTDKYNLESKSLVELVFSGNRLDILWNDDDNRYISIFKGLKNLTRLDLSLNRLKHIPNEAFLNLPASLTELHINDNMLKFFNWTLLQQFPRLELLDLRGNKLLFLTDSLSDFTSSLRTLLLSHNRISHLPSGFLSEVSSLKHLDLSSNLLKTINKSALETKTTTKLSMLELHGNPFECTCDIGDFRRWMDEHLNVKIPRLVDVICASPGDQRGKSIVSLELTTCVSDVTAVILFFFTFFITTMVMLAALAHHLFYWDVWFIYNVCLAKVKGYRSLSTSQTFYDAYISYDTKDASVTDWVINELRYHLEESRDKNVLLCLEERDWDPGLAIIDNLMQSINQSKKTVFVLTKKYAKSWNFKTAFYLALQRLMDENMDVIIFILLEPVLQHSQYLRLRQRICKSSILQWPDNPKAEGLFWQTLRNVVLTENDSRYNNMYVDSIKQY
How it was run: as §1

[1] = Homo sapiens, THP-1, IL-1β production, human
[2] = Homo sapiens, THP-1, IL-1β production, human cells

SMILES | EC50 (THP-1 cells; [1]) [µM] | EC50 (TLR7; activity range class) [µM] | EC50 (TLR8; activity range class) [µM] | EC50 (THP-1 cells; IL-1β production, human) [µM] | EC50 (THP-1 cells; [2]) [µM] | EC50 (TLR7; activity range) [µM] | EC50 (TLR8; activity range) [µM]
Nc1nc2cc(-n3cccn3)ccc2c2nn(CCCO)cc12 [Example 251, 3-(4-amino-7-(1H-pyrazol-1-yl)-2H-pyrazolo[4,3-c]quinolin-2-yl)propan-1-ol] | 0.62 | > 100 | > 100 | – | – | – | –
CCOCCn1cc2c(n1)c(N)nc1cc(-n3cccn3)ccc12 [Example 10, 2-(2-ethoxyethyl)-7-(1H-pyrazol-1-yl)-2H-pyrazolo[3,4-c]quinolin-4-amine] | 1 | 20 to 100 | 1 to 20 | – | – | – | –
CN(C)CCc1cc2c(N)nc3cc(-c4ccn[nH]4)ccc3c2[nH]1 [Example 153, 2-[2-(dimethylamino)ethyl]-7-(1H-pyrazol-5-yl)-1H-pyrrolo[3,2-c]quinolin-4-amine] | 0.7 | > 100 | > 100 | – | – | – | –
Cc1cccc(C(=O)NCCn2cc3c(n2)c(N)nc2cc(-c4cc[nH]n4)ccc23)n1 [Example 49] | 0.61 | > 100 | 20 to 100 | – | – | – | –
Nc1nc2cc(-n3cccn3)ccc2c2cn(CCNC(=O)c3ccccn3)nc12 [Example 133, N-{2-[4-amino-7-(1H-pyrazol-1-yl)-2H-pyrazolo[3,4-c]quinolin-2-yl]ethyl}pyridine-2-carboxamide] | 0.3 | > 100 | > 100 | – | – | – | –
Nc1nc2cc(-c3cc[nH]n3)ccc2c2c1cnn2CCCN1CCOCC1 [Example 214] | 4.55 | > 100 | > 100 | – | – | – | –
NC(=O)Cn1cc2c(n1)c(N)nc1cc(-c3ccn[nH]3)ccc12 [Example 191] | 7.19 | > 100 | > 100 | – | – | – | –
Nc1nc2cc(-c3cc[nH]n3)ccc2c2cn(CCNC(=O)c3ccccn3)nc12 [Example 39] | 0.25 | > 100 | 20 to 100 | – | – | – | –
Nc1nc2cc(-n3cccn3)ccc2c2c1cnn2CCCO [Example 252, 3-(4-amino-7-(1H-pyrazol-1-yl)-1H-pyrazolo[4,3-c]quinolin-1-yl)propan-1-ol] | 1.13 | > 100 | > 100 | – | – | – | –
CCC(=O)NCCn1cc2c(n1)c(N)nc1cc(-c3cc[nH]n3)ccc12 [Example 48] | 5.2 | > 100 | > 100 | – | – | – | –
Nc1nc2cc(-c3cc[nH]n3)ccc2c2cn(CCNC(=O)C3CCOCC3)nc12 [Example 47] | 23.3 | > 100 | > 100 | – | – | – | –
Cc1nnc(Cn2cc3c(N)nc4cc(-c5cc[nH]n5)ccc4c3n2)o1 [Example 243] | 1.39 | > 100 | > 100 | – | – | – | –
CC(=O)NCCCc1nc2c(N)nc3cc(-c4ccn[nH]4)ccc3c2s1 [Example 139, N-[3-[4-amino-7-(1H-pyrazol-5-yl)-[1,3]thiazolo[4,5-c]quinolin-2-yl]propyl]acetamide] | 7.8 | > 100 | > 100 | – | – | – | –

Results, then the molecule that gave them:

EC50 (THP-1 cells; [1]) [µM] | EC50 (TLR7; activity range class) [µM] | EC50 (TLR8; activity range class) [µM] | EC50 (THP-1 cells; IL-1β production, human) [µM] | EC50 (THP-1 cells; [2]) [µM] | EC50 (TLR7; activity range) [µM] | EC50 (TLR8; activity range) [µM] | SMILES
0.47 | > 100 | > 100 | – | – | – | – | COCC(C)n1cc2c(N)nc3cc(-c4cc[nH]n4)ccc3c2n1 (stereo not drawn) [Example 336]
– | > 100 | > 100 | 1.35 | – | – | – | Nc1nc2cc(-c3cc[nH]n3)ccc2c2nn(CC3CCOC3)cc12 (single isomer, unassigned) [Example 328]
2.51 | > 100 | > 100 | – | – | – | – | Nc1nc2cc(-c3cc[nH]n3)ccc2c2nn(C[C@H]3CCC(=O)N3)cc12 [Example 385]
– | – | – | – | 0.08 | > 100 | > 100 | Nc1nc2cc(-c3cc[nH]n3)ccc2c2[nH]c(CCNC(=O)c3csc(Cl)n3)cc12 [Example 485]
– | – | – | – | 3.88 | > 100 | > 100 | COCCS(=O)(=O)NCCCn1cc2c(N)nc3cc(-c4ccn[nH]4)ccc3c2n1 [Example 585]
– | – | – | – | 10.1 | > 100 | > 100 | CC(C)(Cn1cc2c(N)nc3cc(-c4ccn[nH]4)ccc3c2n1)C(=O)NCC(F)F [Example 596]
– | – | – | – | 0.37 | > 100 | > 100 | Nc1nc2cc(-c3cc[nH]n3)ccc2c2[nH]c(CN[C@H]3CCOC3)c(Cl)c12 [Example 487]
– | > 100 | > 100 | 1.49 | – | – | – | Nc1nc2cc(-c3cc[nH]n3)ccc2c2nn(C3COCC3O)cc12 (single isomer, unassigned) [Example 325]
– | > 100 | > 100 | 0.32 | – | – | – | Nc1nc2cc(-c3cc[nH]n3)ccc2c2nn(CC(O)CC(F)(F)F)cc12 (single isomer, unassigned) [Example 379]
– | – | – | – | 1.89 | > 100 | > 100 | CC(N)CCn1cc2c(N)nc3cc(-n4cccn4)ccc3c2n1 (stereo not drawn) [Example 426]
– | – | – | – | 11.6 | > 100 | > 100 | CC(C)NC(=O)C(C)Cn1cc2c(N)nc3cc(-c4cc[nH]n4)ccc3c2n1 (stereo not drawn) [Example 614]
– | > 100 | > 100 | 2.03 | – | – | – | CC1(O)CCCC1n1cc2c(N)nc3cc(-c4cc[nH]n4)ccc3c2n1 (single isomer, unassigned) [Example 345]
– | – | – | – | 0.51 | > 100 | > 100 | CCNCc1cc2c(N)nc3cc(-c4cc[nH]n4)ccc3c2[nH]1 [Example 420]
1.26 | > 100 | > 100 | – | – | – | – | COCC(O)Cn1ncc2c(N)nc3cc(-c4cc[nH]n4)ccc3c21 (stereo not drawn) [Example 306]
– | – | – | – | 20.2 | > 100 | > 100 | CC(C)(C(=O)NCc1ccccn1)n1cc2c(N)nc3cc(-c4cc[nH]n4)ccc3c2n1 [Example 525]
0.24 | > 100 | > 100 | – | – | – | – | CC(CCO)n1cc2c(N)nc3cc(-c4ccn[nH]4)ccc3c2n1 (stereo not drawn) [Example 281]
– | – | – | – | 0.94 | > 100 | > 100 | Cc1nc(C(=O)NC(C)(C)Cn2cc3c(N)nc4cc(-c5cc[nH]n5)ccc4c3n2)co1 [Example 467]
– | – | – | – | 0.97 | > 100 | > 100 | CC(C(=O)NCC(F)F)n1cc2c(N)nc3cc(-c4ccn[nH]4)ccc3c2n1 (stereo not drawn) [Example 567]
0.21 | > 100 | > 100 | – | – | – | – | Nc1nc2cc(-c3cc[nH]n3)ccc2c2nn(C3CCC(O)C3)cc12 (stereo not drawn) [Example 339]
